Entries after “also recorded” stand apart in the source; their conditions may differ. Where two headings read alike, the source gives them in different places. Numbered stars: 1 amine (or outer) side, 2 acyl side, 3 side chain; on linkers, the order of the positions; unused ones are H or OH. Bridge positions count the residues as written; N and C are the ends. Square brackets hold non-standard residues; d marks the D form. Peptide text beside a SMILES is read from it. * marks the point of attachment. X1 = COc1cc2cc(c1Cl)N(C)C(=O)C[C@H](OC(=O)[C@H](C)N(C)C(=O)CCC(C)(C)SSCCCC(=O)*)[C@]1(C)O[C@H]1[C@H](C)[C@@H]1C[C@@](O)(NC(=O)O1)[C@H](OC)/C=C/C=C(\C)C2; X2 = COc1cc2cc(c1Cl)N(C)C(=O)C[C@H](OC(=O)[C@H](C)N(C)C(=O)CCC(C)SSC(C)CCC(=O)*)[C@]1(C)O[C@H]1[C@H](C)[C@@H]1C[C@@](O)(NC(=O)O1)[C@H](OC)/C=C/C=C(\C)C2; X3 = COc1cc2cc(c1Cl)N(C)C(=O)C[C@H](OC(=O)[C@H](C)N(C)C(=O)CCSSCCCC(=O)*)[C@]1(C)O[C@H]1[C@H](C)[C@@H]1C[C@@](O)(NC(=O)O1)[C@H](OC)/C=C/C=C(\C)C2; 1Nal = N[C@@H](Cc1cccc2ccccc12)C(=O)O; TBMB = c1c(C[*:1])cc(C[*:3])cc1C[*:2]; Tle = CC(C)(C)[C@H](N)C(=O)O; βAla = NCCC(=O)O; Sar = CNCC(=O)O
Key:
MT1-MMP hemopexin domain = target: T1, MT1-MMP hemopexin domain (Homo sapiens, UniProt P50281); test: Competition assay using fluorescence polarisation; assay type: binding
T1 construct: residues Cys319-Gly511 from the human gene; His6 (N); made in house; host or cells: HEK293 (transient), pEXPR-IBA42 vector
In short: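 Pre-formed PEX–fluorescent tracer complex titrated with non-fluoresceinated bicyclic peptide, which displaces tracer and lowers fluorescence polarisation. Competitor Kd obtained by fitting to the cubic-equation solution for tracer/titrant/protein equilibria, using tracer Kd from separate direct-binding FP.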

[1] = Plasma stability, quantitative LC-MS (Method #2); assay type: in vitro ADME, human; conditions: for t1/2 (hrs) (human plasma): Table 16, incubation up to 24 hrs, 4 μM; for degradation half-life in human plasma: refers to Table 16
Experimental: (§1) […] […] Prior to LC-MS analysis, samples were defrosted, and mixed with 3 volumes (here, 120 μL) of 1:1 acetonitrile/MeOH water. The milky suspensions were centrifuged for 30 min at 13000 rpm, and peptide-containing supernatants were quantitated for doubly/triply charged species and MS/MS fragments thereof using a Waters Xevo TQ-D instrument, while using a plasma extracted standard curve of the same peptides as a reference. The half-life of degradation in plasma was used to assess the comparative stability of the molecules.

[2] = Plasma stability, quantitative LC-MS (Method #2); assay type: in vitro ADME, mouse; conditions: Table 16; incubation up to 24 hrs, 4 μM
Experimental: as §1

[3] = Plasma stability, quantitative LC-MS; assay type: in vitro ADME, rat; conditions: Table 16; incubation up to 24 hrs, 4 μM
[4] = system: HT-1080 xenograft tumours; test: Efficacy in HT-1080 xenograft mice; assay type: in vivo, mouse; conditions: HT1080 xenograft
Experimental: Balb/c nude mice bearing subcutaneous HT-1080 xenograft tumours were treated with BDCs or vehicle (PBS). BDCs were dosed 3 times weekly for 2 weeks, dosing initiated when tumours measured approx. 150-200 mm^3. Mice were monitored, and measurements of tumour volume and body weight recorded 3 times a week.

[5] = plasma samples from mice dosed intravenously (0.5, 1 and 2 hrs); conditions: male CD1 mice, up to 2 hrs
[6] = plasma samples taken at t=0.5, 1 and 2 hrs from intravenously dosed mice; conditions: male CD1 mice, up to 2 hrs
[7] = Relative stability to DTT of Bicycle Drug Conjugates, quantitative LC-MS; assay type: physicochemical; conditions: Bicycle Drug Conjugates containing the disulphide linker
Experimental: The four BDCs were assessed for several in vitro parameters such as retention of potency to the human MT1-MMP hemopexin domain, stability in ex vivo mouse, rat and human plasma, and stability to reducing agents such as dithiothreitol.

[8] = system: human lung squamous cell carcinoma line EBC-1; test: Efficacy in EBC-1 xenograft mice; assay type: in vivo, mouse
Experimental: All BDCs containing the stabilised bicycle core sequence were tested for their efficacies in in vivo mouse xenograft models, using the human lung squamous cell carcinoma line EBC-1.
The area under the curve (AUC) of tumour volume over time and BDC was taken and plotted against the corresponding dose group (FIG. 13).

[9] = cited from earlier work; for reduction in sensitivity to a reducing agent such as dithiothreitol (compared to the non-hindered disulphide): in the antibody drug conjugate context; for Relative Stability to DTT (ADC): values relate to antibody drug conjugates containing the disulphide linker
rat plasma = conditions: up to 24 hrs
human plasma = conditions: up to 24 hrs
mouse plasma = conditions: up to 24 hrs
[10] = target: T2, hemopexin domain of MT1-MMP (Homo sapiens, UniProt P50281); test: Hemopexin binding assay using the alpha screen; conditions: qualitative
T2 construct: residues Cys319-Gly511 from the human gene; His6 (N); made in house; host or cells: HEK293 (transient), pEXPR-IBA42 vector
Experimental: Employing previously established methods for generating bicyclic peptide phage libraries, selections were performed against the human hemopexin domain of MT1-MMP.
The most frequently occurring sequences were assayed for Hemopexin binding using the alpha screen, where all signals were high compared to the original 17-69 sequence (see Table 1 and FIG. 14): […]

[11] = Table 16, footnote e: 17-69-07-N004 as tracer in FP competition, read-out: Kd (nM) (Hemopexin domain)

C[C@H](NC(=O)CN(C)C(=O)CN(C)C(=O)CN(C)C(=O)CN(C)C(=O)CN(C)C(=O)CN(C)C(=O)CN(C)C(=O)CN(C)C(=O)CN(C)C(=O)CN(C)C(=O)CCN)C(=O)N[C@H]1CSCc2cc3cc(c2)CSC[C@H](NC(=O)[C@@H](C)NC(=O)[C@H](Cc2cccc4ccccc24)NC(=O)[C@H](CCC(=O)O)NC(=O)[C@H](CC(N)=O)NC(=O)[C@@H](C)NC1=O)C(=O)N[C@@H](CCC(=O)O)C(=O)N[C@@H](CC(=O)O)C(=O)N[C@@H](Cc1ccccc1)C(=O)N[C@@H](Cc1ccc(O)cc1)C(=O)N[C@@H](CC(=O)O)C(=O)N[C@@H](C(C)(C)C)C(=O)N[C@H](C(N)=O)CSC3 [17-69-07-N241, bAla-Sar10-A-(17-69-07) D-Ala1 1Nal4 D-Ala5 tBuGly11] (H-[βAla][Sar][Sar][Sar][Sar][Sar][Sar][Sar][Sar][Sar][Sar]AC[dA]NE[1Nal][dA]CEDFYD[Tle]C-NH2; linker 13-19-26 via TBMB)
Kd (MT1-MMP hemopexin domain; Table 12, molecules selected for plasma stability assessment, read-out: Kd): 1.21 ± 0.24 nM
Kd (MT1-MMP hemopexin domain; [11]): 1.4 ± 0.3 nM
species cross-reactivity (MT1-MMP hemopexin domain; murine, dog, cynomolgus and human MT1-MMP): fully cross reactive
t1/2 (hrs) (human plasma) [1]: >36 h
t1/2 (hrs) (mouse plasma) [2]: >36 h
t1/2 (hrs) (rat plasma) [3]: >36 h

CC[C@H](C)[C@@H]1NC(=O)[C@H](CC(=O)O)NC(=O)[C@H](Cc2ccc(O)cc2)NC(=O)[C@H](Cc2ccccc2)NC(=O)[C@H](CC(=O)O)NC(=O)[C@H](CCC(=O)O)NC(=O)[C@@H]2CSCc3cc(cc(c3)CSC[C@H](NC(=O)[C@H](C)NC(=O)CN(C)C(=O)CN(C)C(=O)CN(C)C(=O)CN(C)C(=O)CN(C)C(=O)CN(C)C(=O)CN(C)C(=O)CN(C)C(=O)CN(C)C(=O)CN(C)C(=O)CNC(=O)CCCSSCCC(=O)N(C)[C@@H](C)C(=O)O[C@H]3CC(=O)N(C)c4cc(cc(OC)c4Cl)C/C(C)=C/C=C/[C@@H](OC)[C@@]4(O)C[C@H](OC(=O)N4)[C@@H](C)[C@@H]4O[C@@]34C)C(=O)N[C@@H](Cc3ccc(O)cc3)C(=O)N[C@@H](CC(N)=O)C(=O)N[C@@H](CCC(=O)O)C(=O)N[C@@H](Cc3ccccc3)C(=O)NCC(=O)N2)CSC[C@@H](C(N)=O)NC1=O [BT17BDC-9] (X3-G[Sar][Sar][Sar][Sar][Sar][Sar][Sar][Sar][Sar][Sar]ACYNEFGCEDFYDIC-NH2; linker 13-19-26 via TBMB)
weight of the animals [4]: largely stable
tumour volume ([4]; compared to vehicle control, listed as BDC17BDC-9): significant reduction in tumour volume after 9 days post injection; also recorded: Tumours were completely cleared by day 14

Ac-CYNEFGCEDFYDIC
fragment found [5]: excision of YNEFG in loop 1 (entire loop removed); also recorded: excision of EDFYDI in loop 2 (entire loop removed), minor
fragment found [6]: excision of YNE in loop 1, major; also recorded: excision of YNEF in loop 1; also recorded: excision of YNEFG in loop 1 (the entire loop is removed); also recorded: excision of YD in loop 2, minor; also recorded: excision of FYD in loop 2, minor; also recorded: excision of YDI in loop 2, minor; also recorded: excision of EDFYDI in loop 2 (the entire loop is removed), minor

COc1cc2cc(c1Cl)N(C)C(=O)C[C@H](OC(=O)[C@H](C)N(C)C(=O)CCC(C)SSC(C)CCC(=O)NCCC(=O)N(C)CC(=O)N(C)CC(=O)N(C)CC(=O)N(C)CC(=O)N(C)CC(=O)N(C)CC(=O)N(C)CC(=O)N(C)CC(=O)N(C)CC(=O)N(C)CC(=O)N[C@@H](C)C(=O)N[C@H]1CSCc3cc4cc(c3)CSC[C@H](NC(=O)[C@@H](C)NC(=O)[C@H](Cc3cccc5ccccc35)NC(=O)[C@H](CCC(=O)O)NC(=O)[C@H](CC(N)=O)NC(=O)[C@@H](C)NC1=O)C(=O)N[C@@H](CCC(=O)O)C(=O)N[C@@H](CC(=O)O)C(=O)N[C@@H](Cc1ccccc1)C(=O)N[C@@H](Cc1ccc(O)cc1)C(=O)N[C@@H](CC(=O)O)C(=O)N[C@@H](C(C)(C)C)C(=O)N[C@H](C(N)=O)CSC4)[C@]1(C)O[C@H]1[C@H](C)[C@@H]1C[C@@](O)(NC(=O)O1)[C@H](OC)/C=C/C=C(\C)C2 (stereo partly drawn) [BT17BDC-20] ({X2-βAla}-[Sar][Sar][Sar][Sar][Sar][Sar][Sar][Sar][Sar][Sar]AC[dA]NE[1Nal][dA]CEDFYD[Tle]C-NH2; linker 12-18-25 via TBMB)
Kd (MT1-MMP hemopexin domain; Table 16, footnote f: 17-69-07-N040 as tracer in FP competition, read-out: Kd (nM) (Hemopexin domain)): 2.95 ± 1.3 nM
t1/2 (hrs) (human plasma) [1]: 32 ± 1 h
degradation half-life in human plasma [1]: > 14 h
t1/2 (hrs) (mouse plasma) [2]: >36 h
t1/2 (hrs) (rat plasma) [3]: 34 ± 4 h
Relative Stability to DTT (BDC) [7]: 93
efficacy, tumour clearance [8]: not efficacious and only caused a marginal reduction in tumour sizes
tolerability, body weight [8]: tolerated based on constant weight
reduction in sensitivity to a reducing agent such as dithiothreitol (compared to the non-hindered disulphide) [9]: 170 fold
Relative Stability to DTT (ADC) [9]: 170

βAla-Sar10-A-C(D-Ala)NE(1Nal)(D-Ala)CEDFYD(tBuGly)C
not cleaved (rat plasma): stable; t1/2 >36 hrs (rat plasma)
not cleaved (human plasma): stable; t1/2 >36 hrs (human plasma)
not cleaved (mouse plasma): stable; t1/2 >36 hrs (mouse plasma)

CC[C@H](C)[C@@H]1NC(=O)[C@H](CC(=O)O)NC(=O)[C@H](Cc2ccc(O)cc2)NC(=O)[C@H](Cc2ccccc2)NC(=O)[C@H](CC(=O)O)NC(=O)[C@H](CCC(=O)O)NC(=O)[C@@H]2CSCc3cc(cc(c3)CSC[C@H](N)C(=O)N[C@@H](CCCCN)C(=O)N[C@@H](CC(N)=O)C(=O)N[C@@H](CCCNC(=N)N)C(=O)NCC(=O)N[C@@H](Cc3ccccc3)C(=O)NCC(=O)N2)CSC[C@@H](C(N)=O)NC1=O [Peptide 17-69] (H-CKNRGFGCEDFYDIC-NH2; linker 1-8-15 via TBMB)
alpha screen binding signal [10]: qualitative binding to the target was verified

COc1cc2cc(c1Cl)N(C)C(=O)C[C@H](OC(=O)[C@H](C)N(C)C(=O)CCC(C)(C)SSCCCC(=O)NCCC(=O)N(C)CC(=O)N(C)CC(=O)N(C)CC(=O)N(C)CC(=O)N(C)CC(=O)N(C)CC(=O)N(C)CC(=O)N(C)CC(=O)N(C)CC(=O)N(C)CC(=O)N[C@@H](C)C(=O)N[C@H]1CSCc3cc4cc(c3)CSC[C@H](NC(=O)[C@@H](C)NC(=O)[C@H](Cc3cccc5ccccc35)NC(=O)[C@H](CCC(=O)O)NC(=O)[C@H](CC(N)=O)NC(=O)[C@@H](C)NC1=O)C(=O)N[C@@H](CCC(=O)O)C(=O)N[C@@H](CC(=O)O)C(=O)N[C@@H](Cc1ccccc1)C(=O)N[C@@H](Cc1ccc(O)cc1)C(=O)N[C@@H](CC(=O)O)C(=O)N[C@@H](C(C)(C)C)C(=O)N[C@H](C(N)=O)CSC4)[C@]1(C)O[C@H]1[C@H](C)[C@@H]1C[C@@](O)(NC(=O)O1)[C@H](OC)/C=C/C=C(\C)C2 [BT17BDC-19] ({X1-βAla}-[Sar][Sar][Sar][Sar][Sar][Sar][Sar][Sar][Sar][Sar]AC[dA]NE[1Nal][dA]CEDFYD[Tle]C-NH2; linker 12-18-25 via TBMB)
Kd (MT1-MMP hemopexin domain; [11]): 0.5 nM
degradation half-life in human plasma [1]: > 14 h
t1/2 (hrs) (mouse plasma) [2]: >36 h
t1/2 (hrs) (rat plasma) [3]: >36 h
Relative Stability to DTT (BDC) [7]: 30
efficacy, tumour clearance [8]: efficacious and cleared tumours in 9 days
tolerability, body weight [8]: well tolerated at efficacious doses
reduction in sensitivity to a reducing agent such as dithiothreitol (compared to the non-hindered disulphide) [9]: 14 fold
Relative Stability to DTT (ADC) [9]: 14

— US10532106B2 (priority 2014, dated 2020)
